The values below come from article PMC10175918 (Communications Biology, 2023).

Where two headings read alike, the source gives them in different places.

Common to all, as to test: TGFα-shedding assay-based GPCR screening with chimeric Gα subunit proteins
Assay type in all cases: cell-based

The target in test [1] is T1, 348 GPCRs (Homo sapiens, UniProt O75388).
T1 construct: expressed in transfected cells; host or cells: HEK293A
The settings on record: 10µM, Favipiravir 100μM.

The target in test [2] is T2, 348 GPCRs (Homo sapiens, UniProt Q9P296).
T2 construct: expressed in transfected cells; host or cells: HEK293A
To be noted: 10µM, Favipiravir 100μM.

For test [3], the target named is T3, 348 GPCRs (Homo sapiens, UniProt O75473).
T3 construct: expressed in transfected cells; host or cells: HEK293A
T3 sequence (O75473 22-907): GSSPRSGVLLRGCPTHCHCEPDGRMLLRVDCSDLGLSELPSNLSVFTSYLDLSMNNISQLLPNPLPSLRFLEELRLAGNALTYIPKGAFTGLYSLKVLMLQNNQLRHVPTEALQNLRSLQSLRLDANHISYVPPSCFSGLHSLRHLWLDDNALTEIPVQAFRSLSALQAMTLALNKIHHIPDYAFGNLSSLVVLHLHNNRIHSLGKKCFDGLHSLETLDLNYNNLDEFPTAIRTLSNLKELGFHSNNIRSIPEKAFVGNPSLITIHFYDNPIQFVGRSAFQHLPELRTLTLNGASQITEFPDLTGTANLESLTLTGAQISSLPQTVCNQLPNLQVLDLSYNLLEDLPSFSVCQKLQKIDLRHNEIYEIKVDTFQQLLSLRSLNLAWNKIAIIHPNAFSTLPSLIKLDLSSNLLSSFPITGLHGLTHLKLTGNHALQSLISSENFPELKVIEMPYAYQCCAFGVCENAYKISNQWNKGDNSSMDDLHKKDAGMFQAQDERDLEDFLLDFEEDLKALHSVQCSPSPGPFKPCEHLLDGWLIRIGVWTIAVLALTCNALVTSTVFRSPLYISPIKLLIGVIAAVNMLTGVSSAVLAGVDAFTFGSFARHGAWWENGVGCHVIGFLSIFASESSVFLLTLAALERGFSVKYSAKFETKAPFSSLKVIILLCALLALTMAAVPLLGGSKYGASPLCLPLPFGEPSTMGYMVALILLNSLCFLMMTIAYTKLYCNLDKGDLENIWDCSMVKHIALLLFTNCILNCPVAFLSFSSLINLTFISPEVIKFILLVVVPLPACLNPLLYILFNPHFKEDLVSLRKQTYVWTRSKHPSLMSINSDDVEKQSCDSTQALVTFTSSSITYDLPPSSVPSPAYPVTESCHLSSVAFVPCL
The settings on record: 10µM, Favipiravir 100μM.

The target in test [4] is T4, 348 GPCRs (Homo sapiens, UniProt O00270).
T4 construct: expressed in transfected cells; host or cells: HEK293A
To be noted: 10µM, Favipiravir 100μM.

Test [5] has as its target T5, 348 GPCRs (Homo sapiens, UniProt Q8IZF3).
T5 construct: expressed in transfected cells; host or cells: HEK293A
T5 sequence (Q8IZF3 22-695): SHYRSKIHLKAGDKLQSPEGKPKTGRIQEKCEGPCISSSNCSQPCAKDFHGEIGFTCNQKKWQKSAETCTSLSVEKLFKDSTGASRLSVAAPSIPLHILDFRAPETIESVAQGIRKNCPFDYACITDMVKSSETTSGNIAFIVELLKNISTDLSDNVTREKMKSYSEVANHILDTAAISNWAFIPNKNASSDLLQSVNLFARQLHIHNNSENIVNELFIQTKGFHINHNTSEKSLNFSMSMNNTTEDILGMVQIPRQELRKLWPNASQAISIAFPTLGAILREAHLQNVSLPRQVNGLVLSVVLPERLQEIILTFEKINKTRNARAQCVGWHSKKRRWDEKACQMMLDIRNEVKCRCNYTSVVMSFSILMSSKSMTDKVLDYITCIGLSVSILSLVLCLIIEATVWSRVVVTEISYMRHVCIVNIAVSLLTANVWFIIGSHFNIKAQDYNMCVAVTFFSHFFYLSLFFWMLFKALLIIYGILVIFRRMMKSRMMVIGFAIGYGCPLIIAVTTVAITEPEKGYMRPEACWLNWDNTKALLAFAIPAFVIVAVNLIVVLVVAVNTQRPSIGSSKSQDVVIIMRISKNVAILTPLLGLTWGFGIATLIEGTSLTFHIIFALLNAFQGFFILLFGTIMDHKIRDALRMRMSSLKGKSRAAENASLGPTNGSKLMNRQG

In test [6] the target is T6, 348 GPCRs (Homo sapiens, UniProt P46663).
T6 construct: expressed in transfected cells; host or cells: HEK293A
T6 sequence (P46663 1-353): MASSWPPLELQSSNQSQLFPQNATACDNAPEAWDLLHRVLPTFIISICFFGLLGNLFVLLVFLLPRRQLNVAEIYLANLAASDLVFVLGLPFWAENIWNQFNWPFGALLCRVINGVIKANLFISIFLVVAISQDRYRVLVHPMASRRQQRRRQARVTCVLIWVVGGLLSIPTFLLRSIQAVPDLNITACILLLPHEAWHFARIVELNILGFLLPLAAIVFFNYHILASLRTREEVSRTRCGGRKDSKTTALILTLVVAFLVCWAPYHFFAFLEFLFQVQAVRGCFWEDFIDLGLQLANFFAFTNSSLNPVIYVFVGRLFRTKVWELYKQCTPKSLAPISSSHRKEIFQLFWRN
The settings on record: 10µM, Favipiravir 100μM.

The target of test [7] is T7, 348 GPCRs (Homo sapiens, UniProt Q49SQ1).
T7 construct: expressed in transfected cells; host or cells: HEK293A
T7 sequence (Q49SQ1 1-333): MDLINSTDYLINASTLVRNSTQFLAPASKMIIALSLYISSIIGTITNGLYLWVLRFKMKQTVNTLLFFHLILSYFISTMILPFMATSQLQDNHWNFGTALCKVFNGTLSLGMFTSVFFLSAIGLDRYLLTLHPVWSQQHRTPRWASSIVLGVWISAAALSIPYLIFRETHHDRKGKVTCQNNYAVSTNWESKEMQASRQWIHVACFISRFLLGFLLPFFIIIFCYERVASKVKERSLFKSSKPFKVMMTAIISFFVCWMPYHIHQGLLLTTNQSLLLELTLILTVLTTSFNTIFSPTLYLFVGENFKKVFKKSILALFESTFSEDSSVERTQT
The settings on record: 10µM, Favipiravir 100μM.

Setting [8] is: read-out: % GPCR activation compared to TPA, GPR32 (G protein-coupled receptor 32).
[9] abbreviates: read-out: % GPCR activation compared to TPA, GPR77 (complement component 5a receptor 2 (C5AR2)).
[10] abbreviates: read-out: % GPCR activation compared to TPA, LGR5 (leucine-rich repeat containing G protein-coupled receptor 5).
Where [11] appears, read: read-out: % GPCR activation compared to TPA, GPR31 (G Protein-Coupled Receptor 31).
The mark [12] stands for this setting: read-out: % GPCR activation compared to TPA, GPCR GPR115 (G-protein-coupled receptor 115 (ADGRF4)).
Setting [13] is: read-out: % GPCR activation compared to TPA, B1 (bradykinin receptor B1).
Where [14] appears, read: read-out: % GPCR activation compared to TPA, GPR33 (G protein-coupled receptor 33).
Setting [15] is: GPR32 (G protein-coupled receptor 32), read-out: % GPCR activation compared to TPA.
Where [16] appears, read: GPR77 (complement component 5a receptor 2 (C5AR2)), read-out: % GPCR activation compared to TPA.
The mark [17] stands for this setting: LGR5 (leucine-rich repeat containing G protein-coupled receptor 5), read-out: % GPCR activation compared to TPA.
[18] abbreviates: GPR31 (G Protein-Coupled Receptor 31), read-out: % GPCR activation compared to TPA.
Setting [19] is: B1 (bradykinin receptor B1), read-out: % GPCR activation compared to TPA.
[20] abbreviates: GPR33 (G protein-coupled receptor 33), read-out: % GPCR activation compared to TPA.
Where [21] appears, read: GPCR GPR115 (G-protein-coupled receptor 115 (ADGRF4)), read-out: % GPCR activation compared to TPA.

T2 sequence (Q9P296 whole entry): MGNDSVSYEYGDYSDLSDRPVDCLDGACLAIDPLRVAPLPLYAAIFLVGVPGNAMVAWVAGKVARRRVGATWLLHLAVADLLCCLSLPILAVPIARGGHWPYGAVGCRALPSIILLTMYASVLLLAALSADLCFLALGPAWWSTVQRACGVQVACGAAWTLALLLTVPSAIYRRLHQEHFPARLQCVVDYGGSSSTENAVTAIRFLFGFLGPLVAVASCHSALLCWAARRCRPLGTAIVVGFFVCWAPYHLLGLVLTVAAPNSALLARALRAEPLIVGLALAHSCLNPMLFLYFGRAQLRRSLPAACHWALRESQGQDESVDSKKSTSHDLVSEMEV
T1 sequence (O75388 whole entry): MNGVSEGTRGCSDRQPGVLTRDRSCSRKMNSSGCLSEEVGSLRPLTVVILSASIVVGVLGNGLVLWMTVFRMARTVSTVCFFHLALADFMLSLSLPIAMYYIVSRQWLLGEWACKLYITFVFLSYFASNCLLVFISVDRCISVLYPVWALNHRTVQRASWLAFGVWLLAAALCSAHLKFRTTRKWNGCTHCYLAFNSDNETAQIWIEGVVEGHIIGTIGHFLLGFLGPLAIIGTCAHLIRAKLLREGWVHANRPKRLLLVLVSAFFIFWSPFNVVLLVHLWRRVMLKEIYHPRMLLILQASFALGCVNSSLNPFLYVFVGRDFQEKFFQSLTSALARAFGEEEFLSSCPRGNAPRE
T4 sequence (O00270 whole entry): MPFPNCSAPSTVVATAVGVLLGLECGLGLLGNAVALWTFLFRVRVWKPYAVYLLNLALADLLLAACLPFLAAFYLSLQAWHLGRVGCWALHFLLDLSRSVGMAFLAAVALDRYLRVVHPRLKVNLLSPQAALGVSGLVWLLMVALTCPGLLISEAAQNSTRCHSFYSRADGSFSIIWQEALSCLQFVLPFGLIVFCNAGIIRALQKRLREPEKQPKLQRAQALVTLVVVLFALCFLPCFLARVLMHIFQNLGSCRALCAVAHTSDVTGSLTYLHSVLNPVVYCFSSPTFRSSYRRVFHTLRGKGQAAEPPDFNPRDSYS

Consider `CC(C)OC(=O)[C@H](C)N[P@](=O)(OC[C@H]1O[C@@H](n2ccc(=O)[nH]c2=O)[C@](C)(F)[C@@H]1O)Oc1ccccc1` [sofosbuvir], for which the activation at 10 µM was -3.92% at 348 GPCRs [1] (setting [8]), -1.19% on 348 GPCRs [5] (setting [12]), -5% on 348 GPCRs [6] (setting [13]) and -2.13% at 348 GPCRs [7] (setting [14]). Further, the activation at 100 µM at 348 GPCRs [2] (setting [9]) is -3.7%; at 348 GPCRs [3] (setting [10]) it was -3.95%; on 348 GPCRs [4] (setting [11]) it was -0.455%.
As for `NC(=O)c1nc(F)cnc1O` [favipiravir, 6-fluoro-3-hydroxy-2-pyrazinecarboxamide], the activation at 10 µM was 0.0718% on 348 GPCRs [1] (setting [15]), 5.17% on 348 GPCRs [6] (setting [19]) and -0.127% at 348 GPCRs [7] (setting [20]). Further, the activation at 100 µM at 348 GPCRs [2] (setting [16]) was 6.15%; at 348 GPCRs [3] (setting [17]), -2.31%; on 348 GPCRs [4] (setting [18]) it was -1.25%; at 348 GPCRs [5] (GPCR GPR115 (G-protein-coupled receptor 115 (ADGRF4)), 100μM, read-out: % GPCR activation compared to TPA), -2.79%.
As for `CCC(CC)COC(=O)[C@H](C)N[P@](=O)(OC[C@H]1O[C@@](C#N)(c2ccc3c(N)ncnn23)[C@H](O)[C@@H]1O)Oc1ccccc1` [remdesivir], the activation at 10 µM at 348 GPCRs [1] (setting [8]) is 1.78%; on 348 GPCRs [5] (setting [12]), -1.78%; on 348 GPCRs [6] (setting [13]), 8.43%; on 348 GPCRs [7] (setting [14]), 2.55%. For the same molecule, the activation at 100 µM at 348 GPCRs [2] (setting [9]) was 4.77%; at 348 GPCRs [3] (setting [10]) it was 12.4%; at 348 GPCRs [4] (setting [11]), -1.64%.
Turning to `N#C[C@@]1(c2ccc3c(N)ncnn23)O[C@H](CO)[C@@H](O)[C@H]1O` [GS441524], the activation at 10 µM on 348 GPCRs [1] (setting [15]) was 1.37%; at 348 GPCRs [5] (setting [21]), -3.61%; on 348 GPCRs [6] (setting [19]), 1.31%; on 348 GPCRs [7] (setting [20]), 3.02%. The activation at 100 µM at 348 GPCRs [2] (setting [16]) was 2.65%; on 348 GPCRs [3] (setting [17]) it was -2.87%; on 348 GPCRs [4] (setting [18]), -1.59%.
Turning to `CC(C)C(=O)OC[C@H]1O[C@@H](n2ccc(NO)nc2=O)[C@H](O)[C@@H]1O` [molnupiravir], the activation at 10 µM was -4.1% at 348 GPCRs [1] (setting [15]), -1.43% at 348 GPCRs [5] (setting [21]), -3.36% at 348 GPCRs [6] (setting [19]) and -3.96% on 348 GPCRs [7] (setting [20]). Moreover, the values for the activation at 100 µM at 348 GPCRs [2] (setting [16]), at 348 GPCRs [3] (setting [17]) and at 348 GPCRs [4] (setting [18]) were -1.07%, -3.75% and -1.71%, respectively.
